In US20090093538A1, “Method for treating cancer” (priority 2007, published 2009):
“Also recorded” adds a separate entry of the source.

Key:
Hsp70 [1] = assay: Hsp70 RNA induction, quantitative PCR, Hs294T cells; format: cell-based, human; conditions: Compound 1 100 nM, 6 hours
Procedure: […] 500 ng of RNA from each sample was used for cDNA synthesis using iScript cDNA Synthesis Kit (Biorad, Cat# 170-8891). 1 uL of cDNA mixture was used with the iQ SYBR Green Supermix (Biorad, Cat# 170-8882) to perform quantitative PCR in an iCycler machine (Biorad) using standard protocols. QPCR for each sample/time point was performed in duplicate. The following primers for inducible human Hsp70 and gapdh were used:
Ct values were obtained from the iCycler program and used in an equation (2^−ΔΔCT) for determining the amount of target relative to gapdh expression. This compares the relative expression of Hsp70 to the corresponding levels of gapdh in each sample. Duplicate wells were averaged and graphed with their corresponding standard deviation.
Activation of HSF-1 by oxidative stress has been reported in the literature to require p38 kinase signaling in some cell lines.

MDA-MB-435 cells = assay: Cell viability (Cell Counting Kit-8); format: cell-based, human; conditions: […] NAC, 500 nM Compound 1, 72 hours
Procedure: The cells were further cultured at 37° C. for 72 hours and cell viability was measured with Cell Counting Kit-8 (Dojindo Laboratories, Cat# CK04).

HSB2 cells [2] = assay: Apoptosis, Annexin V / propidium iodide FACS; format: cell-based; conditions: for relative levels of apoptotic cells: agent alone, without Compound 1
Procedure: (§1) To confirm that the ability of NAC to block Compound 1-induced cell death was not cell-line specific, we examined the role of oxidative stress in two additional cell lines by FAC analysis. RAMOS and HSB2 cells (ATCC) were seeded in 6-well plates at 1×10^6 cells/well/4 mL and incubated at 37° C. for 4 hours. […] After incubation the cells were stained with Annexin V and propidium iodide (Vybrant Apoptosis assay kit, Cat# V13241, Invitrogen, Molecular Probes) for measuring apoptotic cells by FACS analysis.
The cells were harvested and stained with Annexin V and propidium iodide for measuring apoptotic cells by FACS analysis.

Ramos cells [3] = assay: ROS generation, carboxy-H2DCFDA probe, flow cytometry; format: cell-based
Procedure: In these experiments, we monitored the production of ROS using the cell permeable Carboxy-H2DCFDA probe. When this probe is oxidized by ROS, it emits a green fluorescence that can be detected using flow cytometry or fluorescent microscopy. […] 25 μM carboxy-H2DCFDA (Invitrogen. C400) working solution was added to cover the cells, and the cells were incubate for 30 minutes at 37° C., protected from light. The cells were gently washed three times in warm HBSS/Ca/Mg. ROS levels, as determined by fluorescence intensity, were determined by flow cytometry (excitation at 495 nm, emission at 529 nm).
(§2) Tiron is a direct scavenger of ROS and is a potent inhibitor of oxidative stress.
Ramos cells were treated with elesclomol (500 nM) for the indicated times then washed gently once with warm HBSS/Ca/Mg (Invitrogen Carlsbad, Calif. Cat# 14025). 25 μM carboxy-H2DCFDA (Invitrogen Cat #C400) working solution was added to cover the cells and they were incubated for 30 minutes at 37° C., protected from light. The cells were gently washed three times in warm HBSS/Ca/Mg. ROS levels (fluorescence intensity) were determined by flow cytometry (excitation at 495 nm, emission at 529 nm) using a Becton Dickinson FACSCalibur equipped with CellQuest Pro software. Data is plotted as percent of elesclomol-treated cells with DCFDA fluorescence relative to DMSO (control) treated cells (see FIG. 49).

[4] = test system: Hs294T (or MDA-MB-435) cells; assay: Affymetrix transcriptional profiling; format: cell-based, human; conditions: Hs294T cells; NAC 5 mM 30 minutes prior to Compound 1 100 nM; 6 hours
Procedure: RNA was isolated from the cells 6 hours after treatment using the RNeasy kit according to the manufacturers instructions (Qiagen Cat. # 71404) and RNA quality was confirmed by spectrophotometric examination. cDNA was synthesized using the One-Cycle cDNA Synthesis Kit (Affymetrix Cat. # 900431) according to the manufacturers instructions. cDNA was labeled using the GeneChip IVT Labeling Kit (Affymetrix Cat. #900449) and analyzed in duplicate on the Affymetrix Human Genome U133Plus 2.0 gene chip array according to standard Affymetrix protocols. Data sheets from the Affymetrix Gene Chip Scanner 3000 were imported into Microsoft Excel and filtered by the following criteria: greater than or equal to 1.5 fold increase, greater than or equal to 0.4SE between replicates; and 50 (low stringency) or 500 (high stringency) for the lowest signal.
NAC is the rate-limiting amino acid for the production of the antioxidant glutathione. Addition of NAC to cells increases the levels of endogenous glutathione which in turn blocks oxidative stress and ROS generation. […] RNA was isolated from the cells 6 hours after treatment and Affymetrix analysis was performed as above.

Ramos cells [5] = assay: Apoptosis, Annexin V / propidium iodide FACS; format: cell-based; conditions: 5 mM NAC
Procedure: as §1

[6] = in vivo
[7] = test system: Stage 1V metastatic melanoma
Procedure: A phase II clinical trial was conducted in patients that had Stage 1V metastatic melanoma patients.
Patients were treated until progression of the disease. […] The tumor assessments were performed at baseline, Cycle 2, and every other Cycle thereafter.

MSK1 = MSK1 phosphorylation, Western blot, MDA-MB-435 cells; format: cell-based, human; conditions: 20 μM SB203580, 0.1 or 0.5 μM Compound 1
Procedure: (§3) After treatment the cells were lysized and used for Western blot analysis.
Samples were run on a SDS-PAGE gel and proteins were transferred onto a nitrocellulose membrane by a semi-dry transfer. Nitrocellulose was blocked with 5% skim milk in TBS with 0.5% Tween at room temperature for 1 hour and then probed with anti-p-MSK1 (Thr581) (#9595, Cell Signaling) antibody. The nitrocellulose was then probed with secondary antibodies, HRP-conjugated goat anti-rabbit IgG and HRP-conjugated horse anti-mouse IgG (#7074, #7076, Cell Signaling). LumiGLO reagent, 20× Peroxide (#7003, Cell Signaling) was used to visualize gel (see FIG. 36).
(§4) Samples were run on a SDS-PAGE gel and proteins were transferred onto a nitrocellulose membrane by a semi-dry transfer. Nitrocellulose was blocked with 5% skim milk in TBS with 0.5% Tween at room temperature for 1 hour and then probed with anti-p-MSK1 (Thr581) (#9595, Cell Signaling) antibody. Tubulin was used as a normalization control and was probed with Anti-Tubulin (T9026, Sigma) antibody.

MAPKAPK-2 = MAPKAPK-2 phosphorylation, Western blot, CEM and CV-1 cells; format: cell-based; conditions: 20 μM SB203580, 0.1 or 0.5 μM Compound 1
Procedure: as §3
as §4, with “anti-p-MAPKAPK-2 (Thr334) (#3041,” for “anti-p-MSK1 (Thr581) (#9595,”

HSB2 cells [8] = assay: Apoptosis, Annexin V / propidium iodide FACS; format: cell-based; conditions: p38 inhibitor 20 μM plus Compound 1 0.2 μM
Hsp70 [9] = assay: Hsp70 induction by Compound 1 in the presence of Tiron; format: cell-based; conditions: Tiron (FIG. 45)
Text: as §2

[10] = test system: cytochrome c and caspase 3; assay: Apoptotic markers, Western blot, Ramos cells; format: cell-based; conditions: 100 nM
Procedure: Ramos cells were plated for 3 hours then treated with 100 nM elesclomol for the indicated times. To determine cytochrome c levels in the cytoplasm and mitochondria (a) Ramos cells were fractionated using the method detailed in (Hase et al, Journal of Biol. Chem. Vol. 277, pp. 46950-58, 2002) and western blots were probed with Cytochrome C primary antibody (BD Pharmingen, clone 7H8.2; C12). All Western blots were probed with secondary antibodies conjugated to HRP (Cell Signaling) and visualized using Lumiglo (Cell Signaling) peroxide reagents. Images were captured from the Kodak Image Station 440. For Caspase 3 analysis (b), whole cell lysates were isolated using 1× cell lysis buffer (Cell Signaling, Danvers, Mass.) plus protease inhibitors (Calbiochem, San Diego, Calif.). 30 ug of protein was run on a 4-12% Nupage gel (Invitrogen) and immunoblotted using standard procedures. The blots were probed with Caspase 3 antibody (9662) and cleaved Caspase 3 primary antibodies (9661) both from Cell Signaling.

[11] = RECIST, Efficacy Sample, patients (percent)

CC(=O)N[C@@H](CS)C(=O)O [NAC, N-acetyl-cysteine, reference compound]
inhibition of Hsp70 induction by Compound 1 (Hsp70 [1]; 5 mM NAC): complete inhibition in Hsp70 induction; also recorded: completely inhibited | block of Compound 1-induced cell death (MDA-MB-435 cells): completely blocked the ability of Compound 1 to induce cell death | early apoptotic cells (HSB2 cells [2]; NAC 5 mM alone): 11% | relative levels of apoptotic cells (HSB2 cells [2]): little or no effect | block of ROS generation by Compound 1 (Ramos cells [3]; 1.0 mM or 10 mM NAC 1 hour prior to Compound 1 0.5 μM): almost completely blocked the generation of ROS by Compound 1 | effect of NAC on genes induced by Compound 1 [4]: inhibited the genes most robustly induced by Compound 1 | inhibition of Compound 1-induced early apoptotic signaling (Ramos cells [5]): completed inhibited early apoptotic signaling

CC(=O)O[C@H]1C(=O)[C@@]2(C)[C@H]([C@H](OC(=O)c3ccccc3)[C@]3(O)C[C@H](OC(=O)[C@H](O)[C@@H](NC(=O)c4ccccc4)c4ccccc4)C(C)=C1C3(C)C)[C@]1(OC(C)=O)CO[C@@H]1C[C@@H]2O [Paclitaxel, paclitaxel]
dose limiting toxicities [6]: dose limiting toxicities occurred in a single patient in each of the top three dose levels | CR + PR (95% CI) ([7]; RECIST, Efficacy Sample): 3.7% (0.1%,19.0%) | Best Overall Response: Complete Response (CR) [7, 11]: 0 | Best Overall Response: Partial Response (PR) [7, 11]: 1 (3.7%) | Best Overall Response: Progressive Disease (PD) [7, 11]: 16 (59.3%) | number of patients with partial response ([7]; Table 5): 1 patient | patients with progressive disease ([7]; Table 5): 59.3% | patients with stable disease ([7]; Table 5): 37%

C[S+]([O-])c1ccc(-c2nc(-c3ccncc3)c(-c3ccc(F)cc3)[nH]2)cc1 (stereo not drawn) [SB203580, reference compound]
inhibition of Hsp70 induction by Compound 1 (Hsp70 [1]; p38 inhibitor 20 uM): robust decrease in Hsp70 induction | relative levels of apoptotic cells (HSB2 cells [2]): little or no effect | block of Compound 1 induced phosphorylation of MSK1 (MSK1): blocked | block of Compound 1 induced phosphorylation of MAPKAPK-2 (MAPKAPK-2): blocked | effect of p38 inhibitor on apoptosis induced by Compound 1 (HSB2 cells [8]): did not effect induction of apoptosis by Compound 1

O=S(=O)(O)c1cc(O)c(O)c(S(=O)(=O)O)c1 [Tiron, reference compound]
block of ROS generation by Compound 1 (Ramos cells [3]; 500 mM Tiron 1 hour prior to Compound 1 0.5 μM, 24 hours): blocked the ability of Compound 1 to generate ROS | block of induction of Hsp70 by Compound 1 (Hsp70 [9]): blocks the induction of Hsp70 by Compound 1

CN(NC(=O)CC(=O)NN(C)C(=S)c1ccccc1)C(=S)c1ccccc1 [elesclomol]
accumulation of ROS (Ramos cells [3]; 500 nM, time course): induces accumulation of ROS in cells shortly after drug treatment | time post treatment at which cytochrome c and caspase 3 start to be activated [10]: 6 h
